According to publication PMC8157947, “Peptidic boronic acids are potent cell-permeable inhibitors of the malaria parasite egress serine protease SUB1” (Proceedings of the National Academy of Sciences of the …, 2021):
“And” between values parts separate entries of the source, which are not always exact repeats. Equal entries are not always repeated.

Legend:
[1] = target: T1, recombinant PfSUB1 (rPfSUB1) (Plasmodium falciparum, UniProt Q8I0V0); assay: rPfSUB1 fluorogenic peptide substrate cleavage inhibition assay; type: biochemical; conditions: fluorogenic peptide substrate; mean ± SD of at least three measurements; read-out: IC50 (nM) (rPfSUB1)
T1 construct: Chymotrypsin-treated rPfSUB1 (expressed and purified as described previously); made in house
Description: We previously described the development of a fluorescence-based in vitro assay suitable for the evaluation of substrate-based PfSUB1 inhibitors, using recombinant PfSUB1 (rPfSUB1) and fluorogenic peptide substrates based on cleavage sites within endogenous protein substrates of PfSUB1 ([13], [21]). […] This was perhaps unsurprising due to the high molecular mass and polar nature of these compounds, including the presence of a carboxylic acid moiety that was designed to mimic endogenous PfSUB1 protein substrates by interacting with the basic S’ surface of the PfSUB1 active-site cleft ([16]). Collectively, these features likely rendered the compounds poorly membrane penetrant.
Fluorescence of this peptide is quenched by rhodamine dimerization in the intact substrate but increases upon cleavage at the internal Q-D bond. Chymotrypsin-treated rPfSUB1 (expressed and purified as described previously ([16]) was stored at −80 °C as a 228 U/mL stock in 20 mM Tris–HCl pH 8.2, 150 mM NaCl, 10% glycerol, and diluted for use (1:500 or 1:600) in reaction buffer (20 mM Tris–HCl pH 8.2, 150 mM NaCl, 12 mM CaCl2, 25 mM CHAPS). Peptidic boronic acid inhibitors were dissolved in 100% DMSO at 10 or 20 mM, then further diluted in DMSO to generate stock solutions ranging from 500 to 0.01 μM and then used diluted 1:100 in the enzyme reactions. All reactions were performed in wells of white 96-well microwell plates (Nunc); 50 μL diluted rPfSUB1 was preincubated for 5 min with 1 μL each of the serially diluted boronic acid inhibitors, followed by addition of 50 μL substrate solution (0.1 μM final). Subsequent fluorescence increase was continuously monitored using a SpectraMax M5e plate reader and SoftMax Pro-6.3 software, with readings taken every 5 min for 60 min using excitation and emission values of 552 and 580 nm, respectively. […] All experiments were performed in duplicate.

[2] = system: P. falciparum 3D7 schizonts; assay: Short-term egress/invasion assay, ring formation by flow cytometry; type: cell-based, Plasmodium falciparum
Procedure: For this, P. falciparum cultures containing synchronous, highly mature schizonts were supplemented with compounds 3b, 3e, 3i, and 3j at a range of dilutions, then allowed to undergo egress and invasion for just 4 h in the continued presence of the compounds, before assessing formation of newly invaded “ring” stage parasites by flow cytometry.
(§1) Short-term egress, invasion, and washout assays were performed essentially as described previously ([27], [28], [42]). Briefly, highly synchronous mature Percoll-enriched schizonts with or without added fresh RBCs (∼5% parasitaemia final) were incubated with compounds under test or vehicle only (DMSO, 1% vol/vol). For washout assays, schizonts were treated with C2 or various concentrations of inhibitor 3j for 1 to 4 h, then washed extensively (at least four times) prior to addition to fresh RBCs where required. After incubation at 37 °C for just 1 to 4 h (or overnight for invasion assays) to allow schizont rupture, cells were pelleted. Clarified culture supernatants were assessed for extent of hemoglobin release (a measure of schizont rupture) by absorption spectroscopy at 415 nm as described previously ([28]) or analyzed by Western blot using antibodies against SERA5 ([7], [11]). To quantify generation of new rings, samples of the cultures were fixed with 4% paraformaldehyde/0.02% glutaraldehyde and stained with SYBR Green I (Life Technologies) and then analyzed by flow cytometry on a BD FACSVerse using BD FACSuite software. Data were analyzed using FlowJo software. All cultures were also routinely analyzed by microscopic examination of Giemsa-stained thin films to visually assess parasite morphology.

elastase = assay: Elastase inhibition assay (MeOSuc-AAPV-AMC cleavage); type: biochemical; conditions: porcine elastase; estimated
Procedure: Assays for assessing inhibition of elastase a c t i vit y (from porcine pancreas; Sigm a-Aldrich E7885) were based on c leavage of the fluorogenic peptide substrate MeOSuc-AAPV-AMC (Sigm a- Aldrich […]
324740). Elastase was dissolved in 1 m M HCl, 2 m M CaCl2 to produce a stock solutio n of 1 mg/ml […]
(38.6 µM). F or inhibition as says , 100 µl of 1 µg/m l (38.6 nM) elastase in 25 m M T ris -HCl pH 8.2, […]
15 m M CaC l2 was d ispense d into we lls of whit e 9 6- we ll m icrowe ll p lates (Nunc), and pre- incubated […]
for 5 m in wi th com pound 3j at concentr ations ranging from 0-20 µM before addition of substrate […]
(10 µM f inal). F luorescence increase was m onitored continuousl y with tim e as above. PMSF was used as a positive inh ib itor control as above. All m easurem ents were perform ed in duplicate.

P. falciparum schizonts = assay: Ring formation after pretreatment of schizonts and washout; type: cell-based, Plasmodium falciparum; conditions: pretreated schizonts washed, fresh RBCs, assessed at 24 h; 3j 10 μM, C2 1 μM
Procedure: as §1

rPfSUB1 = rPfSUB1 (Plasmodium falciparum, UniProt Q8I0V0); assay: Progress curve kinetic analysis of rPfSUB1 inhibition
Description: Boronic acids form reversible covalent bonds with serine and threonine proteases ([26]). Inhibition is generally time dependent, and the covalent nature of the binding can result in relatively long target occupancy times despite the reversibility of the bond. […] To analyze the kinetic characteristics of the interaction between 3j and rPfSUB1, we used progress curve analysis to continuously monitor rPfSUB1-mediated cleavage of a fluorogenic substrate in the presence of a range of concentrations of 3j. […] Under such conditions, fit of the progress curves by nonlinear regression to Eq. 1 (see Materials and Methods) allows determination of kobs, the pseudo first-order rate constant for onset of inhibition. The kobs is effectively a composite of the on and off rates, so least linear squares regression of the calculated kobs values against inhibitor concentration allows determination of values of the pseudo first-order dissociation rate constant koff and the second-order association rate constant kon for the inhibitor-rPfSUB1 interaction, based respectively on values from the y-intercept and slope.
Progress curves of SERA4st1F-6R12 cleavage by rPfSUB1 were acquired at seven concentrations of inhibitor compound 3j over a period of 35 min, during which fluorescence increases in the absence of inhibitor were linear. The obtained progress curves (four independent replicates) were fit using GraphPad Prism 8.0 software to the following time-dependent inhibition equation: [P] = Vs∗t + ((Vi−Vs)/kobs)∗(1−exp(−kobs∗t)).
In the equation, Vi is the initial velocity, Vs is the final steady-state velocity, and kobs reflects the observed pseudo first-order rate of inactivation. The obtained kobs values were plotted against compound concentration using a linear least squares fit. All statistical analysis was carried out using GraphPad Prism 8.

rPfSUB1, sequence (Q8I0V0 218-688): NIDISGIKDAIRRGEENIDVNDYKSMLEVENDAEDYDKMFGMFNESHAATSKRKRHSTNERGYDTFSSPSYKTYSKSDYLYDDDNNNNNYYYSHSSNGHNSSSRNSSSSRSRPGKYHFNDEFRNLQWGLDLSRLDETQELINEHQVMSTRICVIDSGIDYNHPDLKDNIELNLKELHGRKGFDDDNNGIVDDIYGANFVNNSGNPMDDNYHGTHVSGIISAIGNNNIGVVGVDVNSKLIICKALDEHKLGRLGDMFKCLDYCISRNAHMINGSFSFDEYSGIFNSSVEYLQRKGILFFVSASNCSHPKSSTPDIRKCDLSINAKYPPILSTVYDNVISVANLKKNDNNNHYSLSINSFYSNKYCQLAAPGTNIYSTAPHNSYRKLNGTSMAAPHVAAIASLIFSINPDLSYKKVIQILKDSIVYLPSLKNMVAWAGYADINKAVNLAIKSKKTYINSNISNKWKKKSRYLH
T1 sequence (Q8I0V0 218-688): as above

SMILES: CC(=O)NC(C(=O)NC(C(=O)NCC(=O)NC(C)B(O)O)C(C)C)C1CCCC1 (stereo not drawn) [3j]
- IC50 [1]: ~5.7 nM and 5.7 nM
- schizont phenotype in Giemsa-stained thin films ([2]; 10 μM, 4 h incubation): arrest of unruptured schizonts with no ring formation
- EC50 ([2]; Plasmodium falciparum, mature 3D7 schizonts with RBCs, 4 h, flow cytometry): 2500 ± 300 nM
- elastase IC50 relative to that for PfSUB1 (elastase): > 100 fold
- ring production after washout (P. falciparum schizonts): No rings were produced
- Ki (rPfSUB1): 1 nM
- t1/2^off (bound half-life) (rPfSUB1; from koff): ~31 min and ~30 min
- koff (rPfSUB1; read-out: koff, dissociation rate constant): 0.00037 s⁻¹
- kon (rPfSUB1; read-out: kon, second-order association rate constant): 360000 M⁻¹ s⁻¹
